Test results as given in patent US20140294921A1, “COMPOSITION FOR TIPICAL USE FOR TREATING SKIN DISORDERS” (SIGMA-TAU INDUSTRIE FAMACEUTICHE RIUNITE S.P.A., priority 2010, published 2014).

tested on: dithranol-induced mouse ear inflammation (edema); test: Dithranol-induced mouse ear inflammation test; type: in vivo; conditions: Swiss male mice, 10 per group; 20 μL solution painted on left ear at Time 0 and +16 h; dithranol 30 μg in 20 μL acetone at +0.5 h; 6 mm ear disks weighed at +24 h
Procedure: Dithranol is a known inflammatory agent, which induces inflammatory response by releasing free radicals.
The modulatory effects of the compositions of the present invention were tested using the dithranol-induced mouse ear inflammation test described in “Methods in Molecular Biology, 2003, Vol 225; 129-137”, and in “Br. J. Pharmacol. 1991, 104; 990-994”.
Swiss male mice (10 per group) of 6 to 8 weeks old; weighing 28-32 g each; were used. Mice had free access to food and water.
The compounds of the invention were dissolved in water or ethanol (depending on their solubility). 20 μL of the solution containing the compound of the invention, or their combinations, was painted on the left ear (back and front; 10+10 μL) using a Hamilton syringe within 30 seconds (Time 0) The compound tested, and their combinations, are reported in the following
A similar volume of vehicle (water or ethanol) was applied to the other ear (control ear).
After 30 minutes (Time+0.5 h) the irritant, dithranol, 30 μg in 20 μL of acetone was painted on the left ear (back and front, 10+10 μL).
A similar volume of acetone was applied to the other ear.
A group of mice treated only with dithranol (no treatment with the compounds of the invention) was present (control group).
An electric hair dryer for a few seconds to evaporate the solvent was used.
The compounds of the invention were administered again 16 hours from the first treatment (Time+16 h).
After 24 hours from the first treatment (Time+24 h) the animals were killed with an overdose of diethyl ether and the ears were cut off.
A disk from the middle part of each ear was cut off, using a sharp punch 6 mm in diameter.
The disks samples were weighted on a suitable balance, and the extent of the edema (as percentage of inhibition) was calculated according to the formula reported on page 991, right column, of “Br. J. Pharmacol. 1991, 104; 990-994” mentioned above.

Compound | % Inhibit. (extent of the edema as percentage of inhibition) [%]
O=C(O)CCCC[C@@H]1SC[C@@H]2NC(=O)N[C@@H]21 [Biotin] | 6
CC(C)=CCC[C@](C)(O)C1CC=C(C)CC1 (stereo partly drawn) [Bisabolol] | 6
C[N+](C)(C)C[C@H](O)CC(=O)[O-] [L-carnitine] | 9
CC(C)(CO)[C@@H](O)C(=O)NCCCO [Panthenol] | 7
Vitamin B12 | 8
Vitamin E | 8
